Test results: paper PMC3814616, “BRAF inhibitors suppress apoptosis through off-target inhibition of JNK signaling” (eLife, 2013)
Read-outs that look alike come from different tables or passages of the source.

Experiments:
ASK1 (MAP3K5) = target: T1, ASK1 (MAP3K5) (Homo sapiens, UniProt Q99683); experiment: Quantitative competitive binding assay (KINOMEscan); conditions: for IC50: estimated Kd, averaged pointwise estimates, transformed Hill equation, read-out: Calculated estimate of IC50; for remaining binding at 0.05 µM: read-out: Percent control (50 nM); for remaining binding at 0.2 µM: read-out: Percent control (200 nM); for remaining binding at 1 µM: read-out: Percent control (1000 nM); for remaining binding at 10 µM: read-out: Percent control (10 μM)
T1 construct: purchased KINOMEscan (DiscoveRx), San Diego, CA
T1 sequence (Q99683 1-1374): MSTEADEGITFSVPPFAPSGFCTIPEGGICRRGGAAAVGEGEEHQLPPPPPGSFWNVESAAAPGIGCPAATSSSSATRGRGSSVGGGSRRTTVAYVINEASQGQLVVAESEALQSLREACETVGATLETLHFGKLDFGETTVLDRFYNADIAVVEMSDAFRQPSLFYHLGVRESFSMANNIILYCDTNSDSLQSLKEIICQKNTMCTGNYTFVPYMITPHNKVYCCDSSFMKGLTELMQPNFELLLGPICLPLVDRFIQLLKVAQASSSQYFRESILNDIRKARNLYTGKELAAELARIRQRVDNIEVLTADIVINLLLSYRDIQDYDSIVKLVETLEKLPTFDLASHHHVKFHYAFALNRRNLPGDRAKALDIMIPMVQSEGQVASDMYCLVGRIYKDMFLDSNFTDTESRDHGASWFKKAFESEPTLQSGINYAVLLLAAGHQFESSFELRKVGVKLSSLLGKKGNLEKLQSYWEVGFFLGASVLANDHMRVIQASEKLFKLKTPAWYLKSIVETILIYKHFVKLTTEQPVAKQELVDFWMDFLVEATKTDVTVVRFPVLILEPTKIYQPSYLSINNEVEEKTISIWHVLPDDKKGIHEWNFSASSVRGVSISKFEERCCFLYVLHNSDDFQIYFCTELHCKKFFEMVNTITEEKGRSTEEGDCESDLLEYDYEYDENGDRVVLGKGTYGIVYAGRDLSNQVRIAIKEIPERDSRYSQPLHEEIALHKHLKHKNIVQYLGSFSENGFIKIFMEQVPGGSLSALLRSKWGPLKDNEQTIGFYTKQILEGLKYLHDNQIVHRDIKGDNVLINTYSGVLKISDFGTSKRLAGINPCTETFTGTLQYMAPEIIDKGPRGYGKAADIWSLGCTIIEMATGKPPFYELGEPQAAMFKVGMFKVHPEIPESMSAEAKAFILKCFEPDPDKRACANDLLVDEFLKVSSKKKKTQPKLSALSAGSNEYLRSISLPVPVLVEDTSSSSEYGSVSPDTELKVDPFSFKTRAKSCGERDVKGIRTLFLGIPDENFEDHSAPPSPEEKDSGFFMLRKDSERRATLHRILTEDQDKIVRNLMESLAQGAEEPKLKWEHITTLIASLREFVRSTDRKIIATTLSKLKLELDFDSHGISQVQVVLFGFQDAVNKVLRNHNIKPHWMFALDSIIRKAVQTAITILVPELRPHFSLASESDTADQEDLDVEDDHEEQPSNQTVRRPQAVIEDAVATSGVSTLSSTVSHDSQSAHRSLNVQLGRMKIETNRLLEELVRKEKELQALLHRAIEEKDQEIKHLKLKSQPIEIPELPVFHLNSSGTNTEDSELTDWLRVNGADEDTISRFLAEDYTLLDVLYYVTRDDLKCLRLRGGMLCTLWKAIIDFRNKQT

MAP3K1 = target: T2, MAP3K1 (Homo sapiens, UniProt Q13233); experiment: as above; conditions: for remaining binding at 0.05 µM: read-out: Percent control (50 nM); for remaining binding at 0.2 µM: read-out: Percent control (200 nM); for remaining binding at 1 µM: read-out: Percent control (1000 nM); for remaining binding at 10 µM: read-out: Percent control (10 μM)
T2 construct: purchased KINOMEscan (DiscoveRx), San Diego, CA

MEK3 (MAP2K3) = target: T3, MEK3 (MAP2K3) (Homo sapiens, UniProt P46734); experiment: as above; conditions: for remaining binding at 0.05 µM: read-out: Percent control (50 nM); for remaining binding at 0.2 µM: read-out: Percent control (200 nM); for remaining binding at 1 µM: read-out: Percent control (1000 nM); for remaining binding at 10 µM: read-out: Percent control (10 μM)
T3 construct: purchased KINOMEscan (DiscoveRx), San Diego, CA

MEK6 (MAP2K6) = target: T4, MEK6 (MAP2K6) (Homo sapiens, UniProt P52564); experiment: as above; conditions: for remaining binding at 0.05 µM: read-out: Percent control (50 nM); for remaining binding at 0.2 µM: read-out: Percent control (200 nM); for remaining binding at 1 µM: read-out: Percent control (1000 nM); for remaining binding at 10 µM: read-out: Percent control (10 μM)
T4 construct: purchased KINOMEscan (DiscoveRx), San Diego, CA

ZAK = target: T5, ZAK (Homo sapiens, UniProt Q9NYL2); experiment: as above; conditions: for remaining binding at 0.05 µM: read-out: Percent control (50 nM); for remaining binding at 0.2 µM: read-out: Percent control (200 nM); for remaining binding at 1 µM: read-out: Percent control (1000 nM); for remaining binding at 10 µM: read-out: Percent control (10 μM)
T5 construct: purchased KINOMEscan (DiscoveRx), San Diego, CA

OSR1 (OXSR1) = target: T6, OSR1 (OXSR1) (Homo sapiens, UniProt O95747); experiment: as above; conditions: for remaining binding at 0.05 µM: read-out: Percent control (50 nM); for remaining binding at 0.2 µM: read-out: Percent control (200 nM); for remaining binding at 1 µM: read-out: Percent control (1000 nM); for remaining binding at 10 µM: read-out: Percent control (10 μM)
T6 construct: purchased KINOMEscan (DiscoveRx), San Diego, CA

NOXA = experiment: Western blot, UV-induced NOXA expression; type: cell-based, human; conditions: 1 μM
MLK1 (MAP3K9) = target: T7, MLK1 (MAP3K9) (Homo sapiens, UniProt P80192); conditions: read-out: Published biochemical IC50, cited from earlier work
T7 construct: purchased KINOMEscan (DiscoveRx), San Diego, CA

MAP3K3 = target: T8, MAP3K3 (Homo sapiens, UniProt Q99759); experiment: Quantitative competitive binding assay (KINOMEscan); conditions: for remaining binding at 0.05 µM: read-out: Percent control (50 nM); for remaining binding at 0.2 µM: read-out: Percent control (200 nM); for remaining binding at 1 µM: read-out: Percent control (1000 nM); for remaining binding at 10 µM: read-out: Percent control (10 μM)
T8 construct: purchased KINOMEscan (DiscoveRx), San Diego, CA

TNIK = target: T9, TNIK (Homo sapiens, UniProt Q9UKE5); experiment: as above; conditions: for remaining binding at 0.05 µM: read-out: Percent control (50 nM); for remaining binding at 0.2 µM: read-out: Percent control (200 nM); for remaining binding at 1 µM: read-out: Percent control (1000 nM); for remaining binding at 10 µM: read-out: Percent control (10 μM)
T9 construct: purchased KINOMEscan (DiscoveRx), San Diego, CA

TAOK3 = target: T10, TAOK3 (Homo sapiens, UniProt Q9H2K8); experiment: as above; conditions: for remaining binding at 0.05 µM: read-out: Percent control (50 nM); for remaining binding at 0.2 µM: read-out: Percent control (200 nM); for remaining binding at 1 µM: read-out: Percent control (1000 nM); for remaining binding at 10 µM: read-out: Percent control (10 μM)
T10 construct: purchased KINOMEscan (DiscoveRx), San Diego, CA

[1] = estimated Kd, averaged pointwise estimates, transformed Hill equation, read-out: Calculated estimate of IC50

T2 sequence (Q13233 whole entry): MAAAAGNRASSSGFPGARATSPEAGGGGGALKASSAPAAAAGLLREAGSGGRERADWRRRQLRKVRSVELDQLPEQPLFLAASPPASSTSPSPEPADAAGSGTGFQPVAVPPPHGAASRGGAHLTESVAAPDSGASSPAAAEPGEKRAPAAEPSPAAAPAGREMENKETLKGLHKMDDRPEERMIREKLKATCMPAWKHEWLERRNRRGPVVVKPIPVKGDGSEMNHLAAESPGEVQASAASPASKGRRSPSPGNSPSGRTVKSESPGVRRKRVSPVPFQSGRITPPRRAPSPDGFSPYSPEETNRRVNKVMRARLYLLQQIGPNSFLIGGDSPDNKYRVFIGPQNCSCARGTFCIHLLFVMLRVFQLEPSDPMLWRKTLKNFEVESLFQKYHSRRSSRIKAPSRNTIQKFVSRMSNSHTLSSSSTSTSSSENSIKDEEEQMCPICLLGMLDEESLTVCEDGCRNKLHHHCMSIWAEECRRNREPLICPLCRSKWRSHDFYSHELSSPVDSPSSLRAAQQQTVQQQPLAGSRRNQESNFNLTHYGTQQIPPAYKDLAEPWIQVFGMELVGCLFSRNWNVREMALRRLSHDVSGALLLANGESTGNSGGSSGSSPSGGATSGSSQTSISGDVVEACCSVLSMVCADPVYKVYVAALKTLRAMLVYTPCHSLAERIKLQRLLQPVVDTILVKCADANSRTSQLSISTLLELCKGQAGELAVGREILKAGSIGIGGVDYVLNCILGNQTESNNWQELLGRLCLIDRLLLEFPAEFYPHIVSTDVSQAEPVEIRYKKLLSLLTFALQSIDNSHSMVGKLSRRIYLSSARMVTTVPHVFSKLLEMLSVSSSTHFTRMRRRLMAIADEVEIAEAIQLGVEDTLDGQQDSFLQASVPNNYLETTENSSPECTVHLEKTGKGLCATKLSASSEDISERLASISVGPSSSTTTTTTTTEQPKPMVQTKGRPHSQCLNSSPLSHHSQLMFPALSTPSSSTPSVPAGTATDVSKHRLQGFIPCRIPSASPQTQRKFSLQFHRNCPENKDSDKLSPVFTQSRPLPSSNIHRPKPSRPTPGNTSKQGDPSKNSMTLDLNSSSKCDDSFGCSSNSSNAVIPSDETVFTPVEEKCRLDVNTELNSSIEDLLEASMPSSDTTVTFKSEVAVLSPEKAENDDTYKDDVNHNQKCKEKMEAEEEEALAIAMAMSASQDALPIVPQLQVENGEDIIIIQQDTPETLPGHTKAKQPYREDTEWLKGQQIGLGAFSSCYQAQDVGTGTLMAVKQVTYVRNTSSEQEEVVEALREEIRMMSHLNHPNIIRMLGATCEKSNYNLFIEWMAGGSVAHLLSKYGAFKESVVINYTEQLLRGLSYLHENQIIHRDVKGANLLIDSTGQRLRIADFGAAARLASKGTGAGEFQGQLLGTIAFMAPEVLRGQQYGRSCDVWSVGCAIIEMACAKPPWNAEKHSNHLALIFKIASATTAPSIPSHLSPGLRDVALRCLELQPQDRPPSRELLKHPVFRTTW
T8 sequence (Q99759 whole entry): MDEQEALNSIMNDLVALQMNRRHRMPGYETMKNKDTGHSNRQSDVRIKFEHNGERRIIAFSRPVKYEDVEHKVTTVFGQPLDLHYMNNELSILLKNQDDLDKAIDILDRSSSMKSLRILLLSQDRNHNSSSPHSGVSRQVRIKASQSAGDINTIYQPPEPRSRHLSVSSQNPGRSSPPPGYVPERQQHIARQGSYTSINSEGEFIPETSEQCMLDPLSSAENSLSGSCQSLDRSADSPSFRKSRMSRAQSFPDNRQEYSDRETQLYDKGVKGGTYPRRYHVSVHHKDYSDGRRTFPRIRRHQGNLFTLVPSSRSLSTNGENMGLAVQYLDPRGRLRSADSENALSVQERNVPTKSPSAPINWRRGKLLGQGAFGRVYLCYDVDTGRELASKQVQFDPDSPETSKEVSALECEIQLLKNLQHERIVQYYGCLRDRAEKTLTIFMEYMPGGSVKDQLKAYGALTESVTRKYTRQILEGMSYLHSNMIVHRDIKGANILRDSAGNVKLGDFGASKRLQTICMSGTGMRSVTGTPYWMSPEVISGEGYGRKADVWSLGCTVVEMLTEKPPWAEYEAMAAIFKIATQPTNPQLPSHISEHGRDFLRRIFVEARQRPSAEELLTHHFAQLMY
T9 sequence (Q9UKE5 whole entry): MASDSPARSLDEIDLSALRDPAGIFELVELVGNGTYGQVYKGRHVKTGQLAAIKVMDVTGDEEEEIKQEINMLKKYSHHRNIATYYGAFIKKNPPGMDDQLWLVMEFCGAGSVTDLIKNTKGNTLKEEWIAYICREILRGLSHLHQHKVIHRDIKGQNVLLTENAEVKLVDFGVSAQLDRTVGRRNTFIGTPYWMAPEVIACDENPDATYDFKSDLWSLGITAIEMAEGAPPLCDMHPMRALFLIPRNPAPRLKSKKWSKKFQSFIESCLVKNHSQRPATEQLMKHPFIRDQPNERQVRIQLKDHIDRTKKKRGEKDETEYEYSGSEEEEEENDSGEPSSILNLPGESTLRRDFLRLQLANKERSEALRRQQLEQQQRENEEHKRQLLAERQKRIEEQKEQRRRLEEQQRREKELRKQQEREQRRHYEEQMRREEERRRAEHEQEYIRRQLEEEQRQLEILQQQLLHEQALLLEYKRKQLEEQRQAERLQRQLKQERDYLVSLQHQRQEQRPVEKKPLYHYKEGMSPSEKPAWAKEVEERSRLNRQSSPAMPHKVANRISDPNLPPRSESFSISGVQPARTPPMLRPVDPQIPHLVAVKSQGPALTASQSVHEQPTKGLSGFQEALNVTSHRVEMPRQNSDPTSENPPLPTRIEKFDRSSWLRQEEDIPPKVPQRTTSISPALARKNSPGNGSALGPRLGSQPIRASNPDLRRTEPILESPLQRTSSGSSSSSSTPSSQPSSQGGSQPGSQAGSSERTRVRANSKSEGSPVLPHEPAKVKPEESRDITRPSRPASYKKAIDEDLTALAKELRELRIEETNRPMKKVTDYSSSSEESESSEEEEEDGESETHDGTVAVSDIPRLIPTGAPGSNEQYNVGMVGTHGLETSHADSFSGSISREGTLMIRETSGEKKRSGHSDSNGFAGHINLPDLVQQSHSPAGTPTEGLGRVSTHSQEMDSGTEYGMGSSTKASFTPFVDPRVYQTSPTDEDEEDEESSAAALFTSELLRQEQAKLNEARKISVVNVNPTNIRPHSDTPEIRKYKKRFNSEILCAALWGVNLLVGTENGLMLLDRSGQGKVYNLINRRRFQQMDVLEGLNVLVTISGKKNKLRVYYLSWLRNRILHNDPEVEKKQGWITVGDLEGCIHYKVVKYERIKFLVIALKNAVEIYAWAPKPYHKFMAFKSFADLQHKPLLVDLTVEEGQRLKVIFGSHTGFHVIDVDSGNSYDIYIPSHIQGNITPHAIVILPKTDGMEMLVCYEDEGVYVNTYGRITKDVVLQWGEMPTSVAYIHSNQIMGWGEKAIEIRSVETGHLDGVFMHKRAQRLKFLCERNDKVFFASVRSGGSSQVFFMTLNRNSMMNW
T4 sequence (P52564 whole entry): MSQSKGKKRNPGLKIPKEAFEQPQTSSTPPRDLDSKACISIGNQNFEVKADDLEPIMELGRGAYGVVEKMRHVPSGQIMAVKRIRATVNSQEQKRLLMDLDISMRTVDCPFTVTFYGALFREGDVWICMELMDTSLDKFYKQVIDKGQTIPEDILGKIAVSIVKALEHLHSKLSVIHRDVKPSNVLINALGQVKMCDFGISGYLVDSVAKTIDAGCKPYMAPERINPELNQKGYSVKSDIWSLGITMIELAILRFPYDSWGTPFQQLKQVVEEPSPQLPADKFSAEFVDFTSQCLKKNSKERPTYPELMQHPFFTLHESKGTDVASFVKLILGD
T10 sequence (Q9H2K8 whole entry): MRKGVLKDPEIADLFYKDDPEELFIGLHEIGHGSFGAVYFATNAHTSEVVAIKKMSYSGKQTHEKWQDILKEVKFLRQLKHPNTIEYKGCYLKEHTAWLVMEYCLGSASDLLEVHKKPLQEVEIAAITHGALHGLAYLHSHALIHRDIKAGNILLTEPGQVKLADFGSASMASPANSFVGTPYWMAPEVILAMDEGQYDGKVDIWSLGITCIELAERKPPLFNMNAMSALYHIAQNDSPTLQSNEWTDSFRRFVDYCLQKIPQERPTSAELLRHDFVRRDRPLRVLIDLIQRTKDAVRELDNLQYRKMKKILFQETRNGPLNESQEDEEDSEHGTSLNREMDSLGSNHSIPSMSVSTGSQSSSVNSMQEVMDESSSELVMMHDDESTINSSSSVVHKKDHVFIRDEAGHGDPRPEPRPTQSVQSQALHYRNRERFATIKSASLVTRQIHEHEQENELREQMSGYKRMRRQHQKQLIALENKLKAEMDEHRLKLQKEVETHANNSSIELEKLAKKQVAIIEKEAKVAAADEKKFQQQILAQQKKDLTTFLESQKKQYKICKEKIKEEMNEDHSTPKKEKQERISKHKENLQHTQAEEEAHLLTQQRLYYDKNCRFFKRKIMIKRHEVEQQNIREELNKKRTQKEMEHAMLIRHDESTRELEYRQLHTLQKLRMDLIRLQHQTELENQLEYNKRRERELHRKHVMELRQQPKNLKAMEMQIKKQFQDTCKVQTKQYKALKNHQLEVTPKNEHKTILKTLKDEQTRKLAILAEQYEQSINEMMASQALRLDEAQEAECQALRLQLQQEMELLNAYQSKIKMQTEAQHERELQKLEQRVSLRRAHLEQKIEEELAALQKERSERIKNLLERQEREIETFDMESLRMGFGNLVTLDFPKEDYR
T3 sequence (P46734 whole entry): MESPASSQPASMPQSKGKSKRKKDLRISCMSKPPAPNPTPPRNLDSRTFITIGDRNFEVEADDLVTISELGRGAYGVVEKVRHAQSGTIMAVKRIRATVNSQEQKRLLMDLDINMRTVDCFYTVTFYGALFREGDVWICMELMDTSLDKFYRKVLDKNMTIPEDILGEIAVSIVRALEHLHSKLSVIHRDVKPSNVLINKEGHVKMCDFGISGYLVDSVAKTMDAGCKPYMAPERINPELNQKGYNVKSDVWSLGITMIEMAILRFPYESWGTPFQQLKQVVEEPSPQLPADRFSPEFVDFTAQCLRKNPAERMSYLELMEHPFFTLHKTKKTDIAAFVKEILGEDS

## CCCS(=O)(=O)Nc1ccc(F)c(C(=O)c2c[nH]c3ncc(Cl)cc23)c1F [PLX4720]
ASK1 (MAP3K5)
  IC50: 14.2 µM
  remaining binding at 0.05 µM: 89%
  remaining binding at 0.2 µM: 98%
  remaining binding at 1 µM: 97%
  remaining binding at 10 µM: 100%
MAP3K1
  remaining binding at 0.05 µM: 96%
  remaining binding at 0.2 µM: 100%
  remaining binding at 1 µM: 92%
  remaining binding at 10 µM: 84%
MEK3 (MAP2K3)
  remaining binding at 0.05 µM: 100%
  remaining binding at 0.2 µM: 100%
  remaining binding at 1 µM: 100%
  remaining binding at 10 µM: 64%
MEK6 (MAP2K6)
  remaining binding at 0.05 µM: 82%
  remaining binding at 0.2 µM: 100%
  remaining binding at 1 µM: 100%
  remaining binding at 10 µM: 47%
ZAK
  remaining binding at 0.05 µM: 20%
  remaining binding at 0.2 µM: 4%
  remaining binding at 1 µM: 0.7%
  remaining binding at 10 µM: 0.1%
OSR1 (OXSR1)
  remaining binding at 0.05 µM: 100%
  remaining binding at 0.2 µM: 94%
  remaining binding at 1 µM: 95%
  remaining binding at 10 µM: 42%
NOXA; cSCC and HaCaT cell lines
  UV-induced NOXA expression: suppressed
MLK1 (MAP3K9); ref Tsai et al., 2008
  IC50: > 5 µM
MAP3K3
  remaining binding at 0.05 µM: 94%
  remaining binding at 0.2 µM: 97%
  remaining binding at 1 µM: 98%
  remaining binding at 10 µM: 75%
TNIK
  remaining binding at 0.05 µM: 97%
  remaining binding at 0.2 µM: 89%
  remaining binding at 1 µM: 79%
  remaining binding at 10 µM: 24%
TAOK3
  remaining binding at 0.05 µM: 100%
  remaining binding at 0.2 µM: 98%
  remaining binding at 1 µM: 96%
  remaining binding at 10 µM: 58%

## CCCS(=O)(=O)Nc1ccc(F)c(C(=O)c2c[nH]c3ncc(-c4ccc(Cl)cc4)cc23)c1F [vemurafenib]
ASK1 (MAP3K5)
  IC50: 12 µM
  remaining binding at 0.05 µM: 90%
  remaining binding at 0.2 µM: 94%
  remaining binding at 1 µM: 97%
  remaining binding at 10 µM: 100%
MAP3K1
  remaining binding at 0.05 µM: 98%
  remaining binding at 0.2 µM: 84%
  remaining binding at 1 µM: 89%
  remaining binding at 10 µM: 81%
MEK3 (MAP2K3)
  remaining binding at 0.05 µM: 100%
  remaining binding at 0.2 µM: 96%
  remaining binding at 1 µM: 98%
  remaining binding at 10 µM: 54%
MEK6 (MAP2K6); [1]
  IC50: 4.08 µM
MEK6 (MAP2K6)
  remaining binding at 0.05 µM: 91%
  remaining binding at 0.2 µM: 97%
  remaining binding at 1 µM: 87%
  remaining binding at 10 µM: 21%
ZAK; [1]
  IC50: < 0.05 µM
ZAK
  remaining binding at 0.05 µM: 9%
  remaining binding at 0.2 µM: 1.8%
  remaining binding at 1 µM: 0.25%
  remaining binding at 10 µM: 0.05%
OSR1 (OXSR1)
  remaining binding at 0.05 µM: 100%
  remaining binding at 0.2 µM: 100%
  remaining binding at 1 µM: 89%
  remaining binding at 10 µM: 98%
NOXA; NHEK
  NOXA induction at 24 hr post-UV irradiation: diminished
MLK1 (MAP3K9); ref Bollag et al., 2010
  IC50: > 1 µM
MAP3K3
  remaining binding at 0.05 µM: 87%
  remaining binding at 0.2 µM: 97%
  remaining binding at 1 µM: 100%
  remaining binding at 10 µM: 94%
TNIK
  remaining binding at 0.05 µM: 95%
  remaining binding at 0.2 µM: 94%
  remaining binding at 1 µM: 66%
  remaining binding at 10 µM: 11%
TAOK3; [1]
  IC50: 15.5 µM
TAOK3
  remaining binding at 0.05 µM: 92%
  remaining binding at 0.2 µM: 98%
  remaining binding at 1 µM: 92%
  remaining binding at 10 µM: 80%
